Our source for the EC50 and IC50 values is US11459315B2, “Modulators of methyl modifying enzymes, compositions and uses thereof” (Constellation Pharmaceuticals, Inc., priority 2017, dated 2022).

Where two headings read alike, the source gives them in different places.

Test [1] concerns H3K27me3 mark in HeLa cells (EZH2). The test is described as follows: H3K27me3 Alpha Hela Assay (AlphaLISA). To be noted: HeLa cells, 72 hrs, read-out: EZH2 Cell H3K27me3 Alpha HeLa (EC50 K27me3). Format: cell-based. On the procedure:
H3K27me3 Alpha Hela Assay (AlphaLISA). Ten different doses of each test compound (in a series of 3-fold dilutions) were plated in duplicate 384-well tissue culture treated plates (Catalog #6007680; Perkin Elmer, Waltham, Mass.). Hela cells grown in culture were trypsinized and counted using a Countess® cell counter (Catalog #C10281; Life Technologies, Grand Island, N.Y.). Cell were diluted to 67,000 cells per mL in 10% DMEM (Catalog #10569-010 Life Technologies, Grand Island, N.Y.) and 15 μL (1,000 cells) were plated into each well using the Biotek MicroFlo™ Select Dispenser (BioTek Instruments, Inc. Vermont, USA),) of the 384-well plate. Plates were incubated at 37° C./5% CO2 for 72 hrs. One of the duplicate plates was processed for HeLa assay and the other for viability.
5 μL of Cell-Histone Lysis buffer (1×) (Catalog #AL009F1 Perkin Elmer; Waltham, Mass.) per well was added to the plate processed for AlphaLISA and the plate was incubated at RT for 30 minutes on a plate shaker with low speed (Model #4625-Q Thermo Scientific; Waltham, Mass.). Then, 10 μL per well Histone Extraction buffer (catalog #AL009F2; Perkin Elmer; Waltham, Mass.) was added and the plate further incubated at RT for 20 min on plate shaker with low speed. Next, 10 μL of 5× mix of anti-K27me3 acceptor beads plus Biotinylated anti-Histone H3 (C-ter) Antibody (diluted to 3 nM final) (Catalog #AL118 Perkin Elmer; Waltham, Mass.) was added in each well. Dilution of the acceptor beads and anti-Histone H3 was done in 1× Histone Detection buffer (Catalog #AL009F3 Perkin Elmer; Waltham, Mass.) which was produced by diluting the 10× stock provided. The plate was sealed with an aluminum plate sealer and incubated at 23° C. for 60 min. Next, 10 μL 5× solution of Streptavidin Donor beads were added (Catalog #6760002 Perkin Elmer; Waltham, Mass.) (20 μg/mL final in 1× Histone Detection Buffer), =plate was sealed with Aluminum plate sealer and incubated at 23° C. for 30 min. The plates were then read using an EnVision-Alpha Reader (model #2104 Perkin Elmer; Waltham, Mass.).
Data from both assays was analyzed using Genedata (Basel, Switzerland). Data files were imported to Genedata and assay conditions were specified. A unique Analysis ID was created and the data files analysed to measure dose-dependent inhibition of H3K27me3 mark and cell viability respectively. Readout of DMSO wells were used to normalize the data. Resulting curves were fitted using Smart fit application (Genedata; Basel, Switzerland). The data was checked for quality, validated and integrated in excel format using Stardrop (Optibruim, Cambridge, UK).
EC50 values are reported as follows: “A” indicates an EC50 value of less than 10 nM; “B” indicates an EC50 value of 10 nM to 100 nM; “C” indicates an EC50 value of greater than 100 nM; and “ND” is not determined.
(Alpha assays give light when donor and acceptor beads are brought close together.)

The target of another test is PRC2 containing wt EZH2 (Homo sapiens (Human), UniProt Q15910). The test is described as follows: EZH2 biochemical assay (IC50), 3H-SAM incorporation into biotinylated H3 peptide. The procedure:
EZH2 biochemical assay (IC50): Compound potencies were assessed through incorporation of ^3H-SAM into a biotinylated H3 peptide. Specifically, 30 pM PRC2 containing wt EZH2 (pentameric complex prepared in-house) was pre-incubated with 450 nM SAM, 450 nM ^3H-SAM, 2 μM H3K27me3 activating peptide (H2N-[…](Kme3)[…]-amide) and compounds (as 10 point duplicate dose response titrations in DMSO, final assay 0.8% DMSO (v/v)) for 3-5 h in 50 mM Tris (pH 8.5), 1 mM DTT, 0.07 mM Brij-35, 0.1% BSA, and 0.8% DMSO in a total volume of 12.5 μl. Reaction was initiated with biotinylated H3 substrate peptide (H2N-[…](Kme1)[…]-NTPEGBiot) as a 2 μM stock in 12.5 μl of buffer and allowed to react at room temperature for 18-22 h. Quenching was accomplished by addition of 20 μl of STOP solution (50 mM Tris (pH 8.5), 200 mM EDTA, 2 mM SAH). 35 μl of the quenched solution was transferred to streptavidin coated FlashPlates (PerkinElmer), incubated 1-2 h, washed, and read in a TopCount Reader (PerkinElmer). IC50s were calculated in Genedata Screener using non-linear least square four parameter fits, where the four parameters were IC50, Hill slope, pre-transitional baseline (0% INH), and post-transitional baseline (100% INH).
IC50 values are reported as follows: “A” indicates an IC50 value of less than 0.5 nM; “B” indicates an IC50 value of 0.5 nM to 5 nM; “C” indicates an IC50 value of greater than 5 nM for each enzyme; and “ND” is not determined.

Where [2] appears, read: 30 pM PRC2 containing wt EZH2; 3-5 h pre-incubation; read-out: EZH2 (IC50).
Where [3] appears, read: EZH2 (IC50), 30 pM PRC2 containing wt EZH2; 3-5 h pre-incubation.
Setting [4] is: read-out: EZH2 (IC50); 30 pM PRC2 containing wt EZH2; 3-5 h pre-incubation.

Chain of PRC2 containing wt EZH2 (Q15910 whole entry): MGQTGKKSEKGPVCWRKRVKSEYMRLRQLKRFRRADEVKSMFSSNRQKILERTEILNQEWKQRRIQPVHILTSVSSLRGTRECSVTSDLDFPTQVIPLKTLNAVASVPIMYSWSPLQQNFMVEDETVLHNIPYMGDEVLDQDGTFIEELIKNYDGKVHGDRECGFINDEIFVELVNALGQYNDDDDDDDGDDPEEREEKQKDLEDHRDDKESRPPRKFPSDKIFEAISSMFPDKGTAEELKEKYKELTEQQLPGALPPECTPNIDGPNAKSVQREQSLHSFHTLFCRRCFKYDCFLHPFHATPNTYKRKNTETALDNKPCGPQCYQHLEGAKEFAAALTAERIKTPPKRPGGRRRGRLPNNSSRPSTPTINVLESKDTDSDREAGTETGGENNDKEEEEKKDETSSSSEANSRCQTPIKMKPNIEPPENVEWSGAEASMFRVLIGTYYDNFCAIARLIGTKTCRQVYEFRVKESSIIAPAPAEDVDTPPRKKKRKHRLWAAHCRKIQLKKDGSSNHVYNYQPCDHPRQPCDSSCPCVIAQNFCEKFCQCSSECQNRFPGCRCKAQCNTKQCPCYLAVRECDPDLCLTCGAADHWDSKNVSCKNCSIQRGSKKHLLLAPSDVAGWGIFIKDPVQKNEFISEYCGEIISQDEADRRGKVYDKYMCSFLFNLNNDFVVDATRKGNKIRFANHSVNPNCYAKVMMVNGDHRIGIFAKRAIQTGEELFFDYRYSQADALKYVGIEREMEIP
Chain of PRC2 containing wt EZH2 (O75530 whole entry partner): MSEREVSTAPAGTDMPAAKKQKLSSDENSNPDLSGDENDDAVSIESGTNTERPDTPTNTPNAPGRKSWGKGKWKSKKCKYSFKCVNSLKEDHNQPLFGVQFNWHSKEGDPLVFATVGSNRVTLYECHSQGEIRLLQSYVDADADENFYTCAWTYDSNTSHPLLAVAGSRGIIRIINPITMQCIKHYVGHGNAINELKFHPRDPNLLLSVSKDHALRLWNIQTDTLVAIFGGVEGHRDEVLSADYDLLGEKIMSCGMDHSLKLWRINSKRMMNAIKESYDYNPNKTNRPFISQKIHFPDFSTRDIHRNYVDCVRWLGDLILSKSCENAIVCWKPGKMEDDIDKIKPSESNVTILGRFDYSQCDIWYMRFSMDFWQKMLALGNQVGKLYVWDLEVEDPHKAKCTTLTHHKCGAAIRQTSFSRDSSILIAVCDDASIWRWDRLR
Chain of PRC2 containing wt EZH2 (Q15022 whole entry partner): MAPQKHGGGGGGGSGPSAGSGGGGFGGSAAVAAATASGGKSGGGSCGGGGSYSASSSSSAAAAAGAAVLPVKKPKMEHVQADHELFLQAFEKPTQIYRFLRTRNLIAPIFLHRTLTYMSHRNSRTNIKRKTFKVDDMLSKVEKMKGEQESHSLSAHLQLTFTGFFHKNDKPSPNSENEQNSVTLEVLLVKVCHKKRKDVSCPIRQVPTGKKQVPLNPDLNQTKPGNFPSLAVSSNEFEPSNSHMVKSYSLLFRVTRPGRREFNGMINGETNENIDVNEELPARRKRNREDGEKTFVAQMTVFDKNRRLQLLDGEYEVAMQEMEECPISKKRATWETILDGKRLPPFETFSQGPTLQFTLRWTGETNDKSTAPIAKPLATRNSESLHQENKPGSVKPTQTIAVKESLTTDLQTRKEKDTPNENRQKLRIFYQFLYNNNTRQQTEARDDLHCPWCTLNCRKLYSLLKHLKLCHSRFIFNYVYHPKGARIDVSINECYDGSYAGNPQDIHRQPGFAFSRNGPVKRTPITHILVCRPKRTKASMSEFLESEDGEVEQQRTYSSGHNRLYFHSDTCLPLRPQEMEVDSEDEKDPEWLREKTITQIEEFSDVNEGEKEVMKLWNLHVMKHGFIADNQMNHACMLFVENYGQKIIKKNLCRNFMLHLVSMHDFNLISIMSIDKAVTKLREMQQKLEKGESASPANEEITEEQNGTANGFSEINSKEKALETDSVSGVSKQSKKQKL
Chain of PRC2 containing wt EZH2 (Q09028 whole entry partner): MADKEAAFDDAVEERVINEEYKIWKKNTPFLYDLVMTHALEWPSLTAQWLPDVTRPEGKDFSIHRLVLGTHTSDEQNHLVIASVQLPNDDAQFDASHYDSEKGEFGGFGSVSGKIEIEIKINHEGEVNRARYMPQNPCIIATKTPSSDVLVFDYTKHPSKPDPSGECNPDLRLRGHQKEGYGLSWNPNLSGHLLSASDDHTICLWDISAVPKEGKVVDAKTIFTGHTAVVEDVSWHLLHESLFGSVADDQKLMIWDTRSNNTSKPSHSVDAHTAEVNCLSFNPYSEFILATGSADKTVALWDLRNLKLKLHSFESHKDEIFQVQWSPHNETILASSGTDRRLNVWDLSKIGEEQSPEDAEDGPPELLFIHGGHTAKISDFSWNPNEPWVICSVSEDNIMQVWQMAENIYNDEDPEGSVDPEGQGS
Chain of PRC2 containing wt EZH2 (Q6ZN18 whole entry partner): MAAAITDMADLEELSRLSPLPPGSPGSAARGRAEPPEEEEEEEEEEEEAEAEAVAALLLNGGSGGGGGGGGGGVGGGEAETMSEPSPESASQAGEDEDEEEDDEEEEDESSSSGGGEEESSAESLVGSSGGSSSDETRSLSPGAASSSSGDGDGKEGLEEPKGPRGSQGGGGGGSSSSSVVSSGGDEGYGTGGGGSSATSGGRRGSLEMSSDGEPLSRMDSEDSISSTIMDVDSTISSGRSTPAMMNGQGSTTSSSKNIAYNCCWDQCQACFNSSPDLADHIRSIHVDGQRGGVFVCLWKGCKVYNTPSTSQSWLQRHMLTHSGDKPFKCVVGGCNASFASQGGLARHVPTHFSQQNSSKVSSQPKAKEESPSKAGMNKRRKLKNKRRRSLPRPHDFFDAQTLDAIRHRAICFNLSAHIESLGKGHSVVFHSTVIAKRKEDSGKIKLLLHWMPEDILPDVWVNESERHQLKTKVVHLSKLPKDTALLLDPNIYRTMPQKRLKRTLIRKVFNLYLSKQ

For orientation: EC50 means the concentration at which the effect is half-maximal. For orientation: IC50 means the concentration that inhibits the measured activity by half. With `COCCN(C)C1COC([C@@H](C)n2c(C)c(C(=O)NCc3c(SC)cc(C)[nH]c3=O)c3ccccc32)OC1` (single isomer, unassigned) [16 (isomer 2)], in test [1], the concentration giving a half-maximal response (EC50) was over 100 nM. Further, the concentration for half-maximal inhibition (IC50) on PRC2 containing wt EZH2 (setting [2]) was over 5 nM.
For `COC1CCC([C@@H](C)n2c(C)c(C(=O)NCc3c(SC)cc(C)[nH]c3=O)c3ccccc32)CC1` (single isomer, unassigned) [18 (isomer 1)], the concentration for a half-maximal effect (EC50) in test [1] (Homo sapiens, HeLa, 72 h) was under 10 nM. Further, the concentration for half-maximal inhibition (IC50) at PRC2 containing wt EZH2 (setting [3]) was under 0.5 nM.
With `COC1CCC([C@@H](C)n2c(C)c(C(=O)NCc3c(SC)cc(C)[nH]c3=O)c3ccccc32)CC1` (single isomer, unassigned) [18 (isomer 2)], in test [1], the half-maximal effective concentration (EC50) is under 10 nM. For the same molecule, the IC50 on PRC2 containing wt EZH2 (setting [4]) was under 0.5 nM.
For `CSc1cc(C)[nH]c(=O)c1CNC(=O)c1c(C)n([C@H](C)C2CCC(O)CC2)c2ccccc12` (single isomer, unassigned) [19 (isomer 1)], the EC50 in test [1] (Homo sapiens, HeLa, 72 h) is under 10 nM. Moreover, the IC50 on PRC2 containing wt EZH2 (setting [3]) was under 0.5 nM.
For the molecule `CSc1cc(C)[nH]c(=O)c1CNC(=O)c1c(C)n([C@H](C)C2CCC(O)CC2)c2ccccc12` (single isomer, unassigned) [19 (isomer 2)], in test [1], the EC50 was under 10 nM. Moreover, the 50% inhibitory concentration (IC50) on PRC2 containing wt EZH2 (setting [4]) was under 0.5 nM.
Take `CSc1cc(C)[nH]c(=O)c1CNC(=O)c1c(C)n([C@H](C)C2CCC(N3CC(OC(F)F)C3)CC2)c2ccccc12` (single isomer, unassigned) [20 (isomer 1)]: the 50% effective concentration (EC50) in test [1] (Homo sapiens, HeLa, 72 h) was under 10 nM. Besides, the IC50 on PRC2 containing wt EZH2 (setting [2]) was under 0.5 nM.
In the case of `CSc1cc(C)[nH]c(=O)c1CNC(=O)c1c(C)n([C@H](C)C2CCC(N3CC(OC(F)F)C3)CC2)c2ccccc12` (single isomer, unassigned) [20 (isomer 2)], in test [1], the EC50 lay in the range of 10 to 100 nM. Moreover, the IC50 on PRC2 containing wt EZH2 (setting [2]) is under 0.5 nM.
Regarding `CSc1cc(C)[nH]c(=O)c1CNC(=O)c1c(C)n([C@H](C)C2CCC(N3CC(OC(F)(F)F)C3)CC2)c2ccccc12` (single isomer, unassigned) [21 (isomer 1)], in test [1] (Homo sapiens, HeLa, 72 h), the concentration giving a half-maximal response (EC50) was under 10 nM. For the same molecule, the IC50 at PRC2 containing wt EZH2 (setting [2]) was under 0.5 nM.
As to `CSc1cc(C)[nH]c(=O)c1CNC(=O)c1c(C)n([C@H](C)C2CCC(N3CC(OC(F)(F)F)C3)CC2)c2ccccc12` (single isomer, unassigned) [21 (isomer 2)], the EC50 in test [1] is 10 to 100 nM. Also, the IC50 at PRC2 containing wt EZH2 (setting [2]) was under 0.5 nM.
Consider `CSc1cc(C)[nH]c(=O)c1CNC(=O)c1c(C)n([C@H](C)C2CCC(C)(O)CC2)c2ccccc12` (single isomer, unassigned) [22 (isomer 1)], for which the half-maximal effective concentration (EC50) in test [1] (Homo sapiens, HeLa, 72 h) was under 10 nM. The 50% inhibitory concentration (IC50) on PRC2 containing wt EZH2 (setting [3]) was under 0.5 nM.
For the molecule `CSc1cc(C)[nH]c(=O)c1CNC(=O)c1c(C)n([C@H](C)C2CCC(C)(O)CC2)c2ccccc12` (single isomer, unassigned) [22 (isomer 2)], the EC50 in test [1] was under 10 nM. Besides, the half-inhibitory concentration (IC50) on PRC2 containing wt EZH2 (setting [4]) is under 0.5 nM.
Regarding `CSc1cc(C)[nH]c(=O)c1CNC(=O)c1c(C)n([C@H](C)C2CCC(N3CC(F)(F)C3)CC2)c2ccccc12` (single isomer, unassigned) [23 (isomer 1)], the half-maximal effective concentration (EC50) in test [1] (Homo sapiens, HeLa, 72 h) lay in the range of 10 to 100 nM. Also, the 50% inhibitory concentration (IC50) at PRC2 containing wt EZH2 (setting [3]) lay in the range of 0.5 to 5 nM.
As for `CSc1cc(C)[nH]c(=O)c1CNC(=O)c1c(C)n([C@H](C)C2CCC(N3CC(F)(F)C3)CC2)c2ccccc12` (single isomer, unassigned) [23 (isomer 2)], the concentration giving a half-maximal response (EC50) in test [1] was under 10 nM. Moreover, the half-inhibitory concentration (IC50) on PRC2 containing wt EZH2 (setting [3]) was under 0.5 nM.
Take `CSc1cc(C)[nH]c(=O)c1CNC(=O)c1c(C)n([C@H](C)C2CCC(N3CC(F)C3)CC2)c2ccccc12` (single isomer, unassigned) [24 (isomer 1)]: the 50% effective concentration (EC50) in test [1] (Homo sapiens, HeLa, 72 h) is under 10 nM. At PRC2 containing wt EZH2 (setting [3]), this molecule gave an IC50 of under 0.5 nM.
On to `CSc1cc(C)[nH]c(=O)c1CNC(=O)c1c(C)n([C@H](C)C2CCC(N3CC(F)C3)CC2)c2ccccc12` (single isomer, unassigned) [24 (isomer 2)], for which the EC50 in test [1] is under 10 nM. Further, the 50% inhibitory concentration (IC50) on PRC2 containing wt EZH2 (setting [4]) was under 0.5 nM.
For `CSc1cc(C)[nH]c(=O)c1CNC(=O)c1c(C)n([C@H](C)[C@H]2CC[C@H](N3CC(OC(F)F)C3)CC2)c2ncccc12` (single isomer, unassigned) [27 (isomer 1)], in test [1] (Homo sapiens, HeLa, 72 h), the 50% effective concentration (EC50) was under 10 nM. For the same molecule, at PRC2 containing wt EZH2 (setting [2]), the half-maximal inhibitory concentration (IC50) was under 0.5 nM.
